Read-outs that look alike come from different tables or passages of the source.
Assays:
[1] = evaluated in vivo; cited from earlier work
HCC-1954 cells [2] = assay: Cytotoxicity (cell viability, CellTiter-Glo, 6 d); format: cell-based; details: Homo sapiens, HCC1954, HCC-1954
Description: (§1) Dose-matrix combination assays were performed as described above, but performed in opague 384-well plates (2k viable cells/well). Compounds were added using Tecan D300e liquid. Protein solutions were supplemented with 0.3% Tween-20 (final) and diluted to 1 μM. All wells were normalized to the maximum amount of DMSO (maximum 0.4%) or Tween-20 added. […] Luminescence values were normalized to luminescence of non-treated cells and dose-response was fitted using Smart Fit. Synergy scores were calculated using LOEWE synergy model.
After 6 d of treatment, CellTiter-Glo luminescent assay was performed and the luminescence was read on Envision Reader. The results were analyzed using GeneData Screener as described before.

MDA-MB-468 cells [3] = assay: Cytotoxicity (cell viability, CellTiter-Glo, 6 d); format: cell-based; details: Homo sapiens, MDA-MB-468; read-out: IC50
MCF7 cells = assay: Cytotoxicity (cell viability); format: cell-based; details: Homo sapiens; MCF7 (EGFR −, MET −), Table 10
Description: (§2) Curve-shift assays were conducted as follows: The cell number and viability was determined using ViCell™-XR (Beckman Coulter) and seeded in opague 96-well plate (10k viable cells/well). After seeding, the plate was incubated (37° C., 5% C02) in a humid chamber overnight. Compounds were diluted in the appropriate medium, added to the cells and the plate was incubated (37° C., 5% CO2, 6 d) in a humid chamber. After 30 min equilibration at room temperature, CellTiter-Glo reagent (Promega) was added. After the plate was shaken (3 min, 550 rpm, rt) it was incubated (10 min, rt) and luminescence was read on a synergy 4 plate reader (BioTek). Evaluation was performed using GraphPad Prism version 6.05. Therefor luminescence values were normalized to luminescence values of non-treated cells and dose-response was fitted with 4-point logistic fit.
(§3) Dose-matrix combination assays were performed as described above, but performed in opague 384-well plates (2k viable cells/well). Compounds were added using Tecan D300e liquid. Protein solutions were supplemented with 0.3% Tween-20 (final) and diluted to 1 μM. All wells were normalized to the maximum amount of DMSO (maximum 0.4%) or Tween-20 added. Read out of luminescence was performed on Envision 2104 Multilabel Reader (Perkin Elmer) and data were evaluated using Genedata Screener® version 14.0.6-Standard (Genedata AG). Luminescence values were normalized to luminescence of non-treated cells and dose-response was fitted using Smart Fit. Synergy scores were calculated using LOEWE synergy model.

HCC-1954 cells [4] = assay: Dose-matrix combination assay (synergy score, Loewe model); format: cell-based
Description: as §1
(§4) The screening of synergistic drug combinations can be accomplished by performing a dose-matrix assay. Therefore, two drugs are serial diluted and mixed at every dose level, yielding a dose-matrix. The drug combination can be additive if the effects of the combination are identical to the added effects of the single agents. However, the effects of the combination might also be stronger than the activity of the single agents. This scenario is termed synergy, whereas weaker combination effects compared to the single agents are termed antagonism. A dose-matrix assay is depicted schematically in FIG. 2 which illustrates the outcomes of a dose-matrix assay: additivity, antagonism and synergy.
(§5) The screening was conducted by serial diluting the duocarmycin derivative DUBA (10) and the DDR inhibitors. […] DUBA was combined in a dose-matrix assay with hycanthone. The cell viability was measured after 6 d of treatment using the CellTiter-Glo assay kit. The signals of the cell viability assay were normalized to untreated cells and fitted. […] By subtracting the modeled data from the fitted data, an excess matrix was generated. The excess matrix can be considered as a visualization of the differences between model and actual data which also highlights spots of either high synergy or antagonism. The quantification of the combination effects, however, was performed by calculating synergy scores. […] Besides synergy score, the potency of the drugs in monotherapy was obtained from these experiments. […] The potency was obtained from this dose-response curve.
(§6) The scattering of S was determined in a sham control experiment to define a cutoff for classifying a combination as truly synergistic or antagonistic. Thus seven different compounds were combined with itself on four different cell lines and the three-σ confidence interval was calculated around the mean of the measurement. […] For the sake of convenience, the cutoff was set to a value of ±1.
(§7) Synergy scores (S) were obtained from the combination experiments that indicated additivity […] if model and actual response were equal. […] The magnitude of the score determined the extent of the combination effects.

A549 cells = assay: as above; format: cell-based; details: combination with AZD6738; A549 (EGFR-positive), 6 d
Description: as §3, §4

BT-474 cells = assay: MNED curve-shift assay; format: cell-based
Text: (§8) Therefore a curve-shift assay system was established. In a first step, a dose-response curve (DRC) is obtained by treating a certain cell line with an inhibitor. The maximum non-efficacious dose (MNED) can be derived from this DRC. MNED is the highest dose, that can be added to a certain cell line without affecting the viability. The activity of the ADC is confirmed in a separate experiment. Finally, a combination experiment can be conducted. Therefore, the ADC and ADC plus inhibitor at MNED are added to the cells. The inhibitor is tested in parallel at MNED as a control. Due to the application of inhibitor at MNED, no reduction in cell viability caused by the inhibitor is expected. Three outcomes are possible: 1) The combination of ADC plus inhibitor is equipotent as the ADC only. […] Such a result would be interpreted as depotentiation. […] In this case, the potency of the ADC is potentiated.
(§9) Potentiation effects are expressed as dose-reduction indices (DRI), which can be calculated by dividing the IC50-value of ADC by the IC50-value of ADC plus inhibitor according to eq. 1
as §2
(§10) The determination of dose-reduction indices (DRI) in a maximum non-efficacious dose (MNED) curve-shift assay is a 3-step process as depicted exemplarily in FIG. 13. The cytotoxicity of the ADC is confirmed in a cell viability assay in an initial step. […] In the second step. the MNED of the ATRi was determined. […] In order to obtain a full […] for the combination, the starting concentration of the ADC was lowered compared to the experiment in step 1.

Calu-3 cells = assay: MNED curve-shift assay; format: cell-based
Text: as §8, §9, §2, §10

HCC-1954 cells [5] = assay: MNED curve-shift assay; format: cell-based; details: HCC-1954
Text: as §8, §9, §2, §10

JIMT-1 cells = assay: MNED curve-shift assay; format: cell-based
Text: as §8, §9, §2, §10

MDA-MB-453 cells = assay: MNED curve-shift assay; format: cell-based
Text: as §8, §9, §2, §10

MDA-MB-468 cells [6] = assay: MNED curve-shift assay; format: cell-based
Text: as §8, §9, §2, §10

SK-BR-3 cells = assay: MNED curve-shift assay; format: cell-based
Text: as §8, §9, §2, §10

SK-OV-3 cells = assay: MNED curve-shift assay; format: cell-based
Text: as §8, §9, §2, §10

MDA-MB-468 cells [7] = assay: Dose-matrix combination assay (synergy score, Loewe model); format: cell-based; details: combination with DUBA; MDA-MB-468, 6 d; S ± SD; cutoff ±1
Description: as §1, §4, §5, §6, §7

NEK1 = molecular target: T1, NEK1 (Homo sapiens, UniProt Q96PY6); details: cited from earlier work
T1 sequence (Q96PY6 1-1258): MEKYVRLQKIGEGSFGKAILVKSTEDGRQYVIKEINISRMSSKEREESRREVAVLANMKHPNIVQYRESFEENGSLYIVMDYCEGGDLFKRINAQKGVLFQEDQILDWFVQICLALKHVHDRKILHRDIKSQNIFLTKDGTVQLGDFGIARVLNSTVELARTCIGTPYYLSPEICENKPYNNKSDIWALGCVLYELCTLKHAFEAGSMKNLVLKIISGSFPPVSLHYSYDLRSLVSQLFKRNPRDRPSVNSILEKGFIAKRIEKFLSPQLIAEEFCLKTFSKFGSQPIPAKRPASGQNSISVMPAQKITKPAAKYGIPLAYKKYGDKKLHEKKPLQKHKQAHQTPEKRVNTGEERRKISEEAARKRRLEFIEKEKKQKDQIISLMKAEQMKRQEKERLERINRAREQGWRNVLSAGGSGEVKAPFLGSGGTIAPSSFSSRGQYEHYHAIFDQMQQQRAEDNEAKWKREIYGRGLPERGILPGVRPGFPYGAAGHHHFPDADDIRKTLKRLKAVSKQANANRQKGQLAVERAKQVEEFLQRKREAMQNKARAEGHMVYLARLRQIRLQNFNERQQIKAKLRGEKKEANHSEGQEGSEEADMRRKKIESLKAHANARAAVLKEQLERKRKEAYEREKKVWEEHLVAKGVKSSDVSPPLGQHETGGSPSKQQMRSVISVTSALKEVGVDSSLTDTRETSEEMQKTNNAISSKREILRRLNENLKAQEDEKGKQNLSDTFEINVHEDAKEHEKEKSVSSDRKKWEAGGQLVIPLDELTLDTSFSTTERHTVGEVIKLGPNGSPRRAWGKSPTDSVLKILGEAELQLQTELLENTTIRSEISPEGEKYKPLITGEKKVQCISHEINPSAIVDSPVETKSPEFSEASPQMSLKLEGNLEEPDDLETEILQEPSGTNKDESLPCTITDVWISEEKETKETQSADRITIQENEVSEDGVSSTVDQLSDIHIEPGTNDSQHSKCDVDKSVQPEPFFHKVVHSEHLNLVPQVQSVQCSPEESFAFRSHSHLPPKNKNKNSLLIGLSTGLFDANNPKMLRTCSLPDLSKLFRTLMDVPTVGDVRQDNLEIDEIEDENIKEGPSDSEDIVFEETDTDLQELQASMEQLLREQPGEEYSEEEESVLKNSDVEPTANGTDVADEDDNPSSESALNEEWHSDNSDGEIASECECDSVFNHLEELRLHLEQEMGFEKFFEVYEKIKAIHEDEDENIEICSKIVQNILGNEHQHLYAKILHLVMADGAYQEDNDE

[8] = combination with DUBA, HCC-1954, 6 d, S ± SD, cutoff ±1

Question: With COc1c(O)c2c(c3cc(C(=O)N4CCc5c4c(O)c(OC)c4[nH]c(C(=O)N6CC7CC78C6=CC(=O)c6[nH]cc(C)c68)cc54)[nH]c13)CCN2C(N)=O (stereo not shown) [CC-1065] as the compound, how does the antitumor activity [1] read?
Answer: Its antitumor activity is “moderate antitumor activity”.

Question: What about the toxicity [1] of the same compound?
Answer: The toxicity was “hepatic toxicity limited its effectiveness”.

Question: With COC(=O)c1cc2c3c(cc(O)c2[nH]1)N(C(=O)c1cc2cc(OC)c(OC)c(OC)c2[nH]1)C[C@H]3CCl [compound 13] as the compound, how does the IC50 (HCC-1954 cells [2]; duocarmycin variant alone, mean ± SD or mean (individual values), read-out: IC50) read?
Answer: Its IC50 is 0.3 ± 0.1 nM.

Question: And the IC50 (MDA-MB-468 cells [3])?
Answer: Its IC50 is 0.14 ± 0.07 nM.

Question: And the IC50 (MCF7 cells)?
Answer: Its IC50 is 0.06 ± 0.02 nM.

Question: And the “Synergy score S” value (HCC-1954 cells [4]; combination with AZD6738, HCC-1954, 6 d)?
Answer: The value was 4.1 ± 0.4.

Question: And the “Synergy score S” value (HCC-1954 cells [4]; combination with AZD6738, HCC-1954, 6 d, listed as DSA (13))?
Answer: The value was 4.1±0.4.

Question: And the “Synergy score S” value (A549 cells)?
Answer: The value was “additive effects”.

Question: For CNCc1ccc(-c2cc(-c3nc(-c4ccc(S(=O)(=O)C(C)C)cc4)cnc3N)on2)cc1 [VE-822], which IC50 (HCC-1954 cells [2]; ATRi alone, mean ± SD, read-out: Cytotoxicity IC50) is on record?
Answer: Its IC50 is 900 ± 400 nM.

Question: And the “Synergy score S” value (HCC-1954 cells [4]; combination with ADC αHER2-2, HCC-1954)?
Answer: Its value is 5.7±0.3.

Question: And the “Synergy score S” value (HCC-1954 cells [4]; [8])?
Answer: The value was 5.3±0.6.

Question: And the “MNED (maximum non-efficacious dose)” value (BT-474 cells)?
Answer: The value was 1000 nM.

Question: And the “MNED (maximum non-efficacious dose)” value (Calu-3 cells)?
Answer: The value was 80 nM.

Question: What about the “MNED (maximum non-efficacious dose)” value (HCC-1954 cells [5]) of the same compound?
Answer: Its value is 250 nM.

Question: And the “MNED (maximum non-efficacious dose)” value (JIMT-1 cells)?
Answer: The value was 80 nM.

Question: And the “MNED (maximum non-efficacious dose)” value (MDA-MB-453 cells)?
Answer: Its value is 40 nM.

Question: What about the “MNED (maximum non-efficacious dose)” value (MDA-MB-468 cells [6]) of the same compound?
Answer: Its value is 300 nM.

Question: What about the “MNED (maximum non-efficacious dose)” value (SK-BR-3 cells) of the same compound?
Answer: The value was 125 nM.

Question: And the “MNED (maximum non-efficacious dose)” value (SK-OV-3 cells)?
Answer: Its value is 125 nM.

Question: For COc1cc(-c2cnc(N)c(N3CC[C@@H](C(=O)O)[C@@H](C)[C@H]3C)n2)cc(OC)c1OC [Cmpd31], which “Synergy score S” value (HCC-1954 cells [4]; [8]) is on record?
Answer: Its value is 0.3±0.1.

Question: What about the “Synergy score S” value (MDA-MB-468 cells [7]) of the same compound?
Answer: Its value is 0.4±0.2.

Question: And the “potency of NEK1 inhibition” value (NEK1)?
Answer: Its value is 170 nM.

From patent US12616750B2, “Combination therapy utilizing DNA alkylating agents and ATR inhibitors” (Merck Patent GmbH, priority 2018, dated 2026)
